Assays:
[1] = Baseline endogenous levels of DHA, DHA-EE and JV-DE1; format: in vivo; settings: undosed Bama minipigs
Procedure: Endogenous levels were measured in the plasma, cerebrospinal fluid, ocular tissues (retina, optic nerve, ocular muscles), and brain. The endogenous levels DHA are not attributable to NIODP administration of DHA, DHA-EE, or JV-DE1. The baseline data collected in Table 4 was taken from the same lot of pigs, from the same vendor, as the information collected in Tables 5-7.

[2] = Biodistribution of JV-DE1 after periorbital skin (NIODP) application to one eye; format: in vivo, Cynomolgus monkeys; settings: 165.4 μg to OD via NIODP; for OS/OD retina ratio of JV-DE1: undosed/dosed retina
Procedure: An experiment was performed to determine the biodisposition of 4,5-dihydro-N-[4-[[4-(1-methylethoxy) phenyl]methyl] phenyl]-1H-imadazol-2-amine (JV-DE1) following topical application to the periorbital skin that surrounds the anterior portion of the globe was performed.
165.4 μg of JV-DE1, a synthesized chemical compound, was applied to the right eye (OD) of Cynomolgus monkeys via NIODP. The monkeys were restrained from rubbing their eyes for 2 hours post dose and closely monitored by experimenter(s) to prevent cross-contamination of the untreated eye, yet JV-DE1 was quickly found in the undosed upper eyelid (733.4 ng/g), retina (5.2 ng/g) and Vitreous humor (1.03 ng/mL) as early as 0.5-hour post dose. Throughout the 3, 6, and 24-hour post dose points, low levels of JV-DE1 was detected in the retina at 5.5 ˜ 45.5 ng/g of the dosed eye, and 1.4 ˜ 6.3 ng/g of the undosed eye. The ratio of JV-DE1 in undoseD retina vs. the dosed retina was below 25.5% at all post dose time points tested.

[3] = JV-DE1 in cornea and retina after single eye drop administration; format: in vivo, New Zealand Rabbits; settings: 120 μg/eye eye drops to the right eye
From the text: NIODP may be more efficient than topical eye drops for corneal delivery to treat corneal disorders, such as dry disease. […] Accordingly, NIODP may be used to deliver other compounds (such as DHA) to the cornea to treat corneal diseases, such as dry eye.

[4] = JV-DE1 distribution after single periorbital skin administration; format: in vivo, Bama minipigs
Procedure: In this example, 158.45 μg of 4,5-dihydro-N-[4-[[4-(1-methylethoxy) phenyl]methyl] phenyl]-1H-imadazol-2-amine (JV-DE1) was applied to the periorbital skin of a right eye of a Bama minipig. […] 1.37 ng/g of tissue and 1.35 ng/g of tissue of JV-DE1 was measured in the left and right halves of the brain, respectively. The average amount of JV-DE1 present in the brain 3 hours post-dosage was 1.36 ng/g.
Given that the average Bama pig brain weighs around 60 g, the amount of JV-DE1 delivered to the brain can be estimated to be […]. Therefore, 0.051% of the 158.45 μg of JV-DE1 administered to the periorbital skin was delivered to the brain, […] than the deliverability of DHA via NIODP. As a comparison, only about 0.025% of DHA that is orally administered is delivered to the brain or CNS.

[5] = 3 h, JV-DE1 158.45 μg to periorbital skin of right eye

## CC(C)Oc1ccc(Cc2ccc(NC3=NCCN3)cc2)cc1 [JV-DE1, 4,5-dihydro-N-[4-[[4-(1-methylethoxy)phenyl]methyl]phenyl]-1H-imadazol-2-amine]
[1]
  Baseline endogenous concentration in brain: BLQ
  Baseline endogenous concentration in cerebrospinal fluid: BLQ
  Baseline endogenous concentration in eye tissue homogenate including (Retina, optic nerve, ocular muscle): BLQ
  Baseline endogenous concentration in plasma: BLQ
[2]; 0 h post dose
  JV-DE1 in plasma: BLQ
[2]; 0.5 h post dose
  JV-DE1 in plasma: 0.131 ng/mL
[2]; 3 h post dose
  JV-DE1 in plasma: 0.21 ng/mL
[2]; 6 h post dose
  JV-DE1 in plasma: 0.26 ng/mL
[2]; 24 h post dose
  JV-DE1 in plasma: BLQ
[2]; OD (dosed eye), 0.5 h
  JV-DE1 in cornea: 9299.3 ng/g
  JV-DE1 in retina: 39.6 ng/g
  JV-DE1 in upper eyelid: 26535.4 ng/g
  JV-DE1 in vitreous humor: 15.2 ng/mL
  Retina/Upper eyelid ratio of JV-DE1: 0.1%
[2]; OD (dosed eye), 3 h
  JV-DE1 in cornea: 16688.7 ng/g
  JV-DE1 in retina: 27.9 ng/g
  JV-DE1 in upper eyelid: 32454.7 ng/g
  JV-DE1 in vitreous humor: 7.79 ng/mL
  Retina/Upper eyelid ratio of JV-DE1: 0.1%
[2]; OD (dosed eye), 6 h
  JV-DE1 in cornea: 23929.5 ng/g
  JV-DE1 in retina: 45.5 ng/g
  JV-DE1 in upper eyelid: 7945.6 ng/g
  JV-DE1 in vitreous humor: 3.9 ng/mL
  Retina/Upper eyelid ratio of JV-DE1: 0.6%
[2]; OD (dosed eye), 24 h
  JV-DE1 in cornea: 1621.3 ng/g
  JV-DE1 in retina: 5.5 ng/g
  JV-DE1 in upper eyelid: 11597.8 ng/g
  JV-DE1 in vitreous humor: 18.97 ng/mL
  Retina/Upper eyelid ratio of JV-DE1: 0.0%
[2]; OS (undosed eye), 0.5 h
  JV-DE1 in cornea: 0 ng/g
  JV-DE1 in retina: 5.2 ng/g
  JV-DE1 in upper eyelid: 733.4 ng/g
  JV-DE1 in vitreous humor: 1.03 ng/mL
  Retina/Upper eyelid ratio of JV-DE1: 0.7%
[2]; OS (undosed eye), 3 h
  JV-DE1 in cornea: 0 ng/g
  JV-DE1 in retina: 6.3 ng/g
  JV-DE1 in upper eyelid: 1637 ng/g
  JV-DE1 in vitreous humor: 1.85 ng/mL
  Retina/Upper eyelid ratio of JV-DE1: 0.4%
[2]; OS (undosed eye), 6 h
  JV-DE1 in cornea: 0 ng/g
  JV-DE1 in retina: 4.8 ng/g
  JV-DE1 in upper eyelid: 378.2 ng/g
  JV-DE1 in vitreous humor: 0.57 ng/mL
  Retina/Upper eyelid ratio of JV-DE1: 1.3%
[2]; OS (undosed eye), 24 h
  JV-DE1 in cornea: 0 ng/g
  JV-DE1 in retina: 1.4 ng/g
  JV-DE1 in upper eyelid: 46.3 ng/g
  JV-DE1 in vitreous humor: 0 ng/mL
  Retina/Upper eyelid ratio of JV-DE1: 3.0%
[2]; all post dose time points tested
  Ratio of JV-DE1 in undosed retina vs. dosed retina: below 25.5%
[2]; 0.5 h
  OS/OD retina ratio of JV-DE1: 13.1%
[2]; 3 h
  OS/OD retina ratio of JV-DE1: 22.6%
[2]; 6 h
  OS/OD retina ratio of JV-DE1: 10.5%
[2]; 24 h
  OS/OD retina ratio of JV-DE1: 25.5%
[3]; OD (dosed eye), 0.5 h
  JV-DE1 in cornea: 12124.85 ng/g
  JV-DE1 in retina: 92.03 ng/g
[3]; OD (dosed eye), 2 h
  JV-DE1 in cornea: 5952.6 ng/g
  JV-DE1 in retina: 49.13 ng/g
[3]; OD (dosed eye), 6 h
  JV-DE1 in cornea: 5125.52 ng/g
  JV-DE1 in retina: 58.87 ng/g
[3]; OD (dosed eye), 24 h
  JV-DE1 in cornea: 542.19 ng/g
  JV-DE1 in retina: 6.82 ng/g
[3]; OS (undosed eye), 0.5 h
  JV-DE1 in cornea: 78.35 ng/g
  JV-DE1 in retina: 7.35 ng/g
[3]; OS (undosed eye), 2 h
  JV-DE1 in cornea: 28.92 ng/g
  JV-DE1 in retina: 3.38 ng/g
[3]; OS (undosed eye), 6 h
  JV-DE1 in cornea: 67.82 ng/g
  JV-DE1 in retina: 1.42 ng/g
[3]; OS (undosed eye), 24 h
  JV-DE1 in cornea: 11.03 ng/g
  JV-DE1 in retina: BLQ
[4]; 0 h, JV-DE1 158.45 μg to periorbital skin of right eye
  Drug Concentration in Plasma: BLQ
[4]; 1 h, JV-DE1 158.45 μg to periorbital skin of right eye
  Drug Concentration in Plasma: BLQ
[4]; 3 h, JV-DE1 158.45 μg periorbital, whole brain estimate
  Percentage of administered dose delivered to the brain: 0.051%
[4]; [5]
  % of administered dose: Cerebrospinal fluid: 0%
  % of administered dose: brain-left: 0.0518%
  % of administered dose: brain-right: 0.0513%
  % of administered dose: inferior rectus muscle-left: 0.0061%
  % of administered dose: inferior rectus muscle-right: 0.0170%
  % of administered dose: lateral rectus muscle-left: 0.0063%
  % of administered dose: lateral rectus muscle-right: 0.0175%
  % of administered dose: medial rectus muscle-left: 0.0071%
  % of administered dose: medial rectus muscle-right: 0.0260%
  % of administered dose: optic nerve-left: 0.0006%
  % of administered dose: optic nerve-right: 0.0047%
  % of administered dose: retina-left: 0.0002%
  % of administered dose: retina-right: 0.0003%
  % of administered dose: superior rectus muscle-left: 0.0140%
  % of administered dose: superior rectus muscle-right: 0.0237%
  Average JV-DE1 present in the brain: 1.36 ng/g
  Drug Concentration in Plasma: BLQ
  Drug Concentration in Tissue: Cerebrospinal fluid: BLQ
  Drug Concentration in Tissue: brain-left: 1.37 ng/g
  Drug Concentration in Tissue: brain-right: 1.35 ng/g
  Drug Concentration in Tissue: inferior rectus muscle-left: 57.27 ng/g
  Drug Concentration in Tissue: inferior rectus muscle-right: 58.71 ng/g
  Drug Concentration in Tissue: lateral rectus muscle-left: 53.65 ng/g
  Drug Concentration in Tissue: lateral rectus muscle-right: 43.50 ng/g
  Drug Concentration in Tissue: medial rectus muscle-left: 43.67 ng/g
  Drug Concentration in Tissue: medial rectus muscle-right: 65.54 ng/g
  Drug Concentration in Tissue: optic nerve-left: 11.94 ng/g
  Drug Concentration in Tissue: optic nerve-right: 33.63 ng/g
  Drug Concentration in Tissue: retina-left: 2.30 ng/g
  Drug Concentration in Tissue: retina-right: 2.70 ng/g
  Drug Concentration in Tissue: superior rectus muscle-left: 85.83 ng/g
  Drug Concentration in Tissue: superior rectus muscle-right: 88.37 ng/g
[4]; 3 h, brain weight around 60 g, JV-DE1 158.45 μg periorbital
  Amount of JV-DE1 delivered to the brain (estimated): 80.6 ng
